Assay results from US20100249172A1, “9-CHLORO NOSCAPINE AND ITS USE IN TREATING CANCERS, INCLUDING DRUG-RESISTANT CANCERS” (EMORY UNIVERSITY, priority 2007, published 2010).

Legend:
CEM cells = assay: MTS cell proliferation assay; assay type: cell-based, human
Method: Suspension cells (CEM) were seeded into 96-well plates at a density of 5×10^3 cells per well and were treated with increasing concentrations of all halogenated analogs for 72 hours. Measurement of cell proliferation was performed colorimetrically by 3-(4,5-dimethylthiazol-2-yl)-5-(3-carboxymethoxyphenyl)-2-(4-sulphophenyl)-2H-tetrazolium, inner salt (MTS) assay, using the CellTiter96 AQueous One Solution Reagent (Promega, Madison, Wis.). Cells were exposed to MTS for 3 hours and absorbance was measured using a microplate reader (Molecular Devices, Sunnyvale, Calif.) at an optical density (OD) of 490 nm. The percentage of cell survival as a function of drug concentration for both the assays was then plotted to determine the IC50 value, which stands for the drug concentration needed to prevent cell proliferation by 50%.
Having identified tubulin as the target molecule, the pharmacological study was extended at the cellular level to determine if all the halogenated analogs affected cancer cell proliferation. As a preliminary screen, 9-chloro-nos and noscapine were evaluated for their antiproliferative activity in three human cancer cell lines; human breast adenocarcinoma cells (estrogen- and progesterone-receptor positive, MCF-7 and estrogen- and progesterone-receptor negative, MDA-MB-231) and human lymphoblastoid cells CEM. […]

[1] = test system: 1A9/PTX22 (paclitaxel-resistant variant); assay: Inhibition of cell proliferation; assay type: cell-based
[2] = test system: CEM/VM-1-5 (teniposide-resistant variant); assay: Inhibition of cell proliferation; assay type: cell-based, human
[3] = test system: 1A9 (ovarian cancer cells); assay: Inhibition of cell proliferation; assay type: cell-based

SMILES: COc1ccc2c(c1OC)C(=O)O[C@@H]2[C@H]1c2c(c(Cl)c3c(c2OC)OCO3)CCN1C [9-Cl-nos, (S)-3-((R)-9-chloro-4-methoxy-6-methyl-5,6,7,8-tetrahydro-[1,3]dioxolo[4,5-g]isoquinolin-5-yl)-6,7-dimethoxyisobenzofuran-1(3H)-one]
- inhibition of cell proliferation (in words) (CEM cells): effectively inhibits cell proliferation
- IC50 (CEM cells; Homo sapiens, CCRF-CEM, 72 hours): 1200 ± 300 nM
- inhibition of cell proliferation (in words) [1]: effectively inhibits cell proliferation
- inhibition of cell proliferation (in words) [2]: effectively inhibits cell proliferation
- inhibition of cell proliferation (in words) [3]: effectively inhibits cell proliferation
